The record followed here is US20090304692A1, “TRIAZINE COMPOUNDS AS PI3 KINASE AND MTOR INHIBITORS” (Wyeth, priority 2008, published 2009).

One assay deals with PI3K-γ (Homo sapiens, UniProt P48736). In words: PI3K-gamma fluorescence polarization assay.
Assay [1] deals with human prostate LNCap tumor cell line. In words: In vitro cell culture growth assay (MTS), LNCap. Particulars: Homo sapiens, LNCaP, 72 h, read-out: IC50 LNCap.
The target of the next assay is PI3K-α (Homo sapiens, UniProt P42336). In words: PI3K-alpha fluorescence polarization assay. Particulars: read-out: IC50 PI3Kα. In general terms: Fluorescence polarisation rises when a labelled molecule tumbles more slowly, as on binding a larger partner.
PI3K-α, sequence (P42336 whole entry, species assumed): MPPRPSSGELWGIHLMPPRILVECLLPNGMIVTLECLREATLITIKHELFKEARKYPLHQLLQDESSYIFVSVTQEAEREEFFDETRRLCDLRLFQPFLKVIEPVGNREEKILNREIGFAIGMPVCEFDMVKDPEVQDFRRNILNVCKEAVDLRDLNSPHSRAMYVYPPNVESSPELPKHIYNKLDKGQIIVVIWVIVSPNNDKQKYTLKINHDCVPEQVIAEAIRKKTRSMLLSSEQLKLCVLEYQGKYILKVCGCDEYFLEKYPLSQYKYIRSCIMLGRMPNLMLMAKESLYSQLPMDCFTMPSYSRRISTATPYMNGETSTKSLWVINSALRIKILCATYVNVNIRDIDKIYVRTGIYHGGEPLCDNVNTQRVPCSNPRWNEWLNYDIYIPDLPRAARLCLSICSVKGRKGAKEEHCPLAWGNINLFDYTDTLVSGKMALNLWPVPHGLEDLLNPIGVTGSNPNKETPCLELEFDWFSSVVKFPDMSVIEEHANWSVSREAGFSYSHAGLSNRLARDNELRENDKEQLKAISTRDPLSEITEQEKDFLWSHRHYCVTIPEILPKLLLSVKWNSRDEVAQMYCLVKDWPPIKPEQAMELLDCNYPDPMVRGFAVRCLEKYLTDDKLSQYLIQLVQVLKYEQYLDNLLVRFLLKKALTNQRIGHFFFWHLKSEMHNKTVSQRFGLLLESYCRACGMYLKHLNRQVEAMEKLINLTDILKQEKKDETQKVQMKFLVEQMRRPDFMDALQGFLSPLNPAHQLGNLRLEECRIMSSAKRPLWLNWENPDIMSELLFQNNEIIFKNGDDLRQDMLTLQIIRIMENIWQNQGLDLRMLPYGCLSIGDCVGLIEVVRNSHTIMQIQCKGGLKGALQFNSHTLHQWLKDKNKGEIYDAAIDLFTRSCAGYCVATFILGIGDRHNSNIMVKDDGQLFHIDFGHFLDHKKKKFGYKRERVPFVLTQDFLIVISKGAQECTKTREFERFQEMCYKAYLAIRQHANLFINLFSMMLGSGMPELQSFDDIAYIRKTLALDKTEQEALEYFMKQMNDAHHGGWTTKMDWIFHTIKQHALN
PI3K-α, sequence (P27986 whole entry partner, species assumed): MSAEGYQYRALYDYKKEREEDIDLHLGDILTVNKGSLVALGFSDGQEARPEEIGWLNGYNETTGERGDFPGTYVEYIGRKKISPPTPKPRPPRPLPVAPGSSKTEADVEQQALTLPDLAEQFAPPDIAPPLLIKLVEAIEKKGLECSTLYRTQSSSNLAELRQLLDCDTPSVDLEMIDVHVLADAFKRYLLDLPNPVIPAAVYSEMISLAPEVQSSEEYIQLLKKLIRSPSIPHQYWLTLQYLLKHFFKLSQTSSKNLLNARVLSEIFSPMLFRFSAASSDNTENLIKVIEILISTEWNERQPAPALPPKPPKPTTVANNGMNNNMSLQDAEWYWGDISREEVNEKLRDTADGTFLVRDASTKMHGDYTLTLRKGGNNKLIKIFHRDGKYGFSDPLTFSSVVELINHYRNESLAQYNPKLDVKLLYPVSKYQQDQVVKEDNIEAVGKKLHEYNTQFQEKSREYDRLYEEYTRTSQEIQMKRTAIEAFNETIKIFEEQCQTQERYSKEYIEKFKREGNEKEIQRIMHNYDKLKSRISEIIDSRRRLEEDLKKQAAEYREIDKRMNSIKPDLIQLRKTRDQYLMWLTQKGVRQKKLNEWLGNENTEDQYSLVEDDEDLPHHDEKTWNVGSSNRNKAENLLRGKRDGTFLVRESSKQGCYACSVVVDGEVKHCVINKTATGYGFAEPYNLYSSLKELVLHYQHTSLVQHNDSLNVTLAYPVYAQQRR
A further assay addresses Human mTOR (FLAG-TOR) (Homo sapiens, UniProt P42345). Kind of assay: mTOR kinase assay (DELFIA format, purified enzyme). The class given is biochemical. Particulars: read-out: IC50 mTOR.

Where two headings read alike, the source gives them in different places. Where only a bound is given, the exact number is not on record here.

Human mTOR (FLAG-TOR), sequence (P42345 1360-2549 limits assumed): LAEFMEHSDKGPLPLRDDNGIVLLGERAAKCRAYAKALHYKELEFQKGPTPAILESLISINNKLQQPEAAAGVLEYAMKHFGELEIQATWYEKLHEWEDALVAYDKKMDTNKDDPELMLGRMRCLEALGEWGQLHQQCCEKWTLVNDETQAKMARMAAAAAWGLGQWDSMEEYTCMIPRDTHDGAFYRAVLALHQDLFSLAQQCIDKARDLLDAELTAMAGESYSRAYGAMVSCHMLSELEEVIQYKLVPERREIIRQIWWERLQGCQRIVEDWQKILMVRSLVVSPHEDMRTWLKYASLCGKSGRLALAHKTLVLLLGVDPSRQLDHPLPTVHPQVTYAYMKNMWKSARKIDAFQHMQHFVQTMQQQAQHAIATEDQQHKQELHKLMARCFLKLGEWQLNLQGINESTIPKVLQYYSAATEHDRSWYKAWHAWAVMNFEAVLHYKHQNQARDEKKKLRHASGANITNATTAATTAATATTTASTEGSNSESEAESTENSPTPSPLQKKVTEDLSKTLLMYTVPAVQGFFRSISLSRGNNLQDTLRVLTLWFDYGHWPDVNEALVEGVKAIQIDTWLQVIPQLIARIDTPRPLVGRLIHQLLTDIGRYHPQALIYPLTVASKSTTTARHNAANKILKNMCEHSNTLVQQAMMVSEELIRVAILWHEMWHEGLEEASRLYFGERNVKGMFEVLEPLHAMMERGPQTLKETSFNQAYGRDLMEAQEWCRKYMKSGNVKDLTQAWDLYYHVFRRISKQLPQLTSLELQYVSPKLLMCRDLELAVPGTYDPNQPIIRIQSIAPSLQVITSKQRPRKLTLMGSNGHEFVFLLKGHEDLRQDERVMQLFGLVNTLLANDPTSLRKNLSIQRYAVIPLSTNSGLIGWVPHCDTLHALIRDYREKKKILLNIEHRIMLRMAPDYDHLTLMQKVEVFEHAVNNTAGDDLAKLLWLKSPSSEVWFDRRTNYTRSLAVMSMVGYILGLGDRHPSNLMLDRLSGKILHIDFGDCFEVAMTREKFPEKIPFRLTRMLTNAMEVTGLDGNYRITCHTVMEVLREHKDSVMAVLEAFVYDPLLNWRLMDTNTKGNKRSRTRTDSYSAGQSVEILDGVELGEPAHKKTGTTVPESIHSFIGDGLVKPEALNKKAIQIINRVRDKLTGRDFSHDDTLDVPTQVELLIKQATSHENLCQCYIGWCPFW
PI3K-γ, sequence (P48736 whole entry, species assumed): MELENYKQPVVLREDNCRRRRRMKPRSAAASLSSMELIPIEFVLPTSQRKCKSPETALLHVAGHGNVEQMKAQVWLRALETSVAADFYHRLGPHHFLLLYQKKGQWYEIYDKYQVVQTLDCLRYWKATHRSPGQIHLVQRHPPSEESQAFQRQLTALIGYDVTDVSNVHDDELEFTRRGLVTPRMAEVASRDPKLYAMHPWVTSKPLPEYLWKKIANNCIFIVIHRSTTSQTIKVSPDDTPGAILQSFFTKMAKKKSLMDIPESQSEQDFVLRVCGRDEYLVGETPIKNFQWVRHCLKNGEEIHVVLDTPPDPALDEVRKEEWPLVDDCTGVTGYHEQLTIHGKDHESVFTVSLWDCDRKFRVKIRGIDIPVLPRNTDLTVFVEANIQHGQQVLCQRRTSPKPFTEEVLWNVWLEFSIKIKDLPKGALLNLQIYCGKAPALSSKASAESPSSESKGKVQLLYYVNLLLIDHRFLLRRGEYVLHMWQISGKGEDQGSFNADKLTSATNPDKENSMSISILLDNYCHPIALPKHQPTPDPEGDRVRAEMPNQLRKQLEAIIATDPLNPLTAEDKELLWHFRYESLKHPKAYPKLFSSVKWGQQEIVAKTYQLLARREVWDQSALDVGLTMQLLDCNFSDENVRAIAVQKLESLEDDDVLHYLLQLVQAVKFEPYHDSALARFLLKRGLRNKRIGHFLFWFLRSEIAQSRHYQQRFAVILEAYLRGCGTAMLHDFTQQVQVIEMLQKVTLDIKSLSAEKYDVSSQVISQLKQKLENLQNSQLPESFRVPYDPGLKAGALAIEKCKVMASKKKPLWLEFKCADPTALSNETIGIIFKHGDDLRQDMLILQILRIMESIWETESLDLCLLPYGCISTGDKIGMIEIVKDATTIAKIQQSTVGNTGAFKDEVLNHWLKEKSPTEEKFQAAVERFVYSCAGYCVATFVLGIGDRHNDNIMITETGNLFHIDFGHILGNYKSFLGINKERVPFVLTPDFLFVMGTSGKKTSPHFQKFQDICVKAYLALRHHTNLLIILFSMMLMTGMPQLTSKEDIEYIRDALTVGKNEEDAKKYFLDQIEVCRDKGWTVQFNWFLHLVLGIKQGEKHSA

With `C[C@@H]1COCCN1c1nc(-c2ccc(NC(=O)Nc3ccc(N4CCC(N(C)C)CC4)cc3)cc2)nc(C2CCOCC2)n1` [Example 430, (R)-1-(4-(4-(dimethylamino)piperidin-1-yl)phenyl)-3-(4-(4-(3-methylmorpholino)-6-(tetrahydro-2H-pyran-4-yl)-1,3,5-triazin-2-yl)phenyl)urea], the IC50 worked out at 484 nM on PI3K-γ (read-out: IC50 PI3Kγ), 16 nM in assay [1], 402 nM at PI3K-α and 1.7 nM on Human mTOR (FLAG-TOR).
The like results for `C[C@@H]1COCCN1c1nc(-c2ccc(NC(=O)Nc3ccc(C(=O)N4CCN(C)CC4)cc3)cc2)nc(C2CCOCC2)n1` [Example 431, (R)-1-(4-(4-(3-methylmorpholino)-6-(tetrahydro-2H-pyran-4-yl)-1,3,5-triazin-2-yl)phenyl)-3-(4-(4-methylpiperazine-1-carbonyl)phenyl)urea] were, in that order, 340 nM, < 0.8 nM, 43 nM and 1 nM.
The corresponding values for `CC(C)N1CCN(C(=O)c2ccc(NC(=O)Nc3ccc(-c4nc(C5CCOCC5)nc(N5CCOC[C@H]5C)n4)cc3)cc2)CC1` [Example 432, (R)-1-(4-(4-isopropylpiperazine-1-carbonyl)phenyl)-3-(4-(4-(3-methylmorpholino)-6-(tetrahydro-2H-pyran-4-yl)-1,3,5-triazin-2-yl)phenyl)urea] are 480 nM, < 0.8 nM, 90 nM and 0.69 nM.
As to `O=C(Nc1ccc(-c2nc(C3CCOCC3)nc(N3C4CCC3COC4)n2)cc1)Nc1ccc(N2CCN(C3CC3)CC2)cc1` [Example 436, 1-(4-(4-(3-oxa-8-azabicyclo[3.2.1]octan-8-yl)-6-(tetrahydro-2H-pyran-4-yl)-1,3,5-triazin-2-yl)phenyl)-3-(4-(4-cyclopropylpiperazin-1-yl)phenyl)urea], the IC50 on PI3K-γ (read-out: IC50 PI3Kγ) turned out to be 3120 nM; in assay [1], 10 nM; on PI3K-α, 749 nM; on Human mTOR (FLAG-TOR), 0.62 nM.
As for `C[C@@H]1COCCN1c1nc(-c2ccc(NC(=O)Nc3ccc(N4CCN(C5CC5)CC4)cc3)cc2)nc(N2C3CCC2COC3)n1` [Example 442, 1-(4-(4-(3-oxa-8-azabicyclo[3.2.1]octan-8-yl)-6-((R)-3-methylmorpholino)-1,3,5-triazin-2-yl)phenyl)-3-(4-(4-cyclopropylpiperazin-1-yl)phenyl)urea], the IC50 on PI3K-γ was > 10000 nM; in assay [1], 13 nM; at PI3K-α, 1760 nM; at Human mTOR (FLAG-TOR), 1.5 nM.
For the compound `C[C@@H]1COCCN1c1nc(-c2ccc(NC(=O)Nc3ccc(N4CCN(C)CC4)nc3)cc2)nc(N2C3CCC2COC3)n1` [Example 446, 1-(4-(4-(3-oxa-8-azabicyclo[3.2.1]octan-8-yl)-6-((R)-3-methylmorpholino)-1,3,5-triazin-2-yl)phenyl)-3-(6-(4-methylpiperazin-1-yl)pyridin-3-yl)urea], the IC50 at PI3K-γ (read-out: IC50 PI3Kγ) was determined as 4010 nM; in assay [1], 15 nM; on PI3K-α, 835 nM; on Human mTOR (FLAG-TOR), 0.82 nM.
As for `CCN1CCN(c2ccc(NC(=O)Nc3ccc(-c4nc(N5CCOC[C@H]5C)nc(N5CCOC[C@H]5C)n4)cc3)cc2)CC1` [Example 447, 1-(4-(4,6-bis((R)-3-methylmorpholino)-1,3,5-triazin-2-yl)phenyl)-3-(4-(4-ethylpiperazin-1-yl)phenyl)urea], the IC50 worked out at 2800 nM at PI3K-γ (read-out: IC50 PI3Kγ), 8 nM in assay [1], 390 nM at PI3K-α and 1.9 nM at Human mTOR (FLAG-TOR).
`CC(C)N1CCN(c2ccc(NC(=O)Nc3ccc(-c4nc(N5CCOC[C@H]5C)nc(N5CCOC[C@H]5C)n4)cc3)cc2)CC1` [Example 448, 1-(4-(4,6-bis((R)-3-methylmorpholino)-1,3,5-triazin-2-yl)phenyl)-3-(4-(4-isopropylpiperazin-1-yl)phenyl)urea]: the IC50 against PI3K-γ was > 10000 nM; in assay [1] it was 18 nM; at PI3K-α, 519 nM; on Human mTOR (FLAG-TOR), 2.3 nM.

By IC50 is commonly meant the point on the concentration scale where inhibition reaches its midpoint.
